Results reported in patent EP1001769B1, “SOLUBLE PRODRUGS OF PACLITAXEL” (BAKER NORTON PHARMACEUTICALS, INC., priority 1997, dated 1998).
Where a name gives a salt, the structure may show the parent alone.

Legend:
Format in all cases: physicochemical
[1] = Stability of paclitaxel-2'-MPA solution in water/polyethylene glycol, analysed by HPLC; conditions: freshly prepared solution 0.53 mg/ml in CH3CN, HPLC trace
[2] = as above
Method: The onium salt paclitaxel-2'-MPA was prepared by the method of Nicolaou et al., Angew. Chim. Int. Engl., 33:1583-1587 ([…]). A 2.40 mg/ml solution of the paclitaxel-2'-MPA was prepared by dissolving the salt (10.2 mg) in a solution of water (3.024 ml) and polyethylene glycol (1.234 ml). Samples of this solution were frozen. The frozen samples were slowly warmed to room temperature and homogenized with CH3CN (50 µl). An aliquot (50 µl) was removed and diluted to a final volume of 200 µl with deionized H2O and analyzed via HPLC (20 µl injection).

[3] = Solubility in deionized water; conditions: 0.97 and 0.80 mg in 0.5 ml deionized water, sonicated about 1 minute; 1.54 mg sample needed additional 0.1 ml; upper limit not attained
Method: Solubility: Deionized water (0.5 ml) was added to three samples of the 2'-MPM (1.54 mg, 0.97 mg and 0.80 mg) and the flask sonicated for approximately one (1) minute.

[4] = Extraction from water into CH2Cl2; conditions: about 1 mg in 1 ml water stirred with 1 ml CH2Cl2; residue of organic phase weighed
Method: Extraction: Three samples (1.2, 1.0 and 0.98 mg) were dissolved in water (1 ml) and vigorously stirred with CH2Cl2 (1 ml). The organic phase was transferred to a clean, tared vial and concentrated in vacuo. The residue was weighed and compared to the theoretical input to gauge the effectiveness of the extraction procedure. Average return for this extraction was about 44% of theoretical.

[5] = Aqueous stability of the prodrug in H2O and 0.2M NaCl
Method: Aqueous Stability: The stability of the prodrug in H2O and 0.2M NaCI was examined at both room temperature and under refrigerated conditions. Samples in H2O (0.54 mg in 2 ml) and NaCI (0.57 mg in 2 ml) at room temperature were examined at two minute time intervals (0 through 12 minutes), 2 hours and 24 hours. […] At 4°C the product concentration was unchanged at 24 and 48 hours but decreased to 90% after 72 hours. […] At 4°C the product concentration was unchanged at 24 hours, was 91% at 48 hours and was 88% at 72 hours.

[6] = freshly prepared solution 0.53 mg/ml in CH3CN, HPLC trace

Q: Which Paclitaxel peak [1] does the source give for `CC(=O)O[C@H]1C(=O)[C@@]2(C)[C@H]([C@H](OC(=O)c3ccccc3)[C@]3(O)C[C@H](OC(=O)[C@H](Oc4cccc[n+]4C)[C@@H](NC(=O)c4ccccc4)c4ccccc4)C(C)=C1C3(C)C)[C@]1(OC(C)=O)CO[C@@H]1C[C@@H]2O` [2'-MPA, Paclitaxel 2'-Methylpyridinium Acetate] here?
A: 15%

Q: And the “2'-MPA %” value ([2]; 4°C, 1 Hour)?
A: 85%

Q: And the Paclita. % ([2]; 4°C, 1 Hour)?
A: 15%

Q: What about the “2'-MPA %” value ([2]; 4°C, 2 Weeks) of the same compound?
A: 79%

Q: And the Paclita. % ([2]; 4°C, 2 Weeks)?
A: 9%

Q: What about the Unkno. % ([2]; 4°C, 2 Weeks) of the same compound?
A: 10%

Q: What about the “2'-MPA %” value ([2]; 4°C, 6 Hours) of the same compound?
A: 75%

Q: And the Paclita. % ([2]; 4°C, 6 Hours)?
A: 11%

Q: And the Unkno. % ([2]; 4°C, 6 Hours)?
A: 14%

Q: What about the “2'-MPA %” value ([2]; 4°C, 18 Hours) of the same compound?
A: 73%

Q: What about the Paclita. % ([2]; 4°C, 18 Hours) of the same compound?
A: 10%

Q: What about the Unkno. % ([2]; 4°C, 18 Hours) of the same compound?
A: 17%

Q: What about the “2'-MPA %” value ([2]; 4°C, 18 Hours, listed as MPA salt) of the same compound?
A: 73%

Q: What about the “2'-MPA %” value ([2]; 4°C, 42 Hours) of the same compound?
A: 79%

Q: And the Paclita. % ([2]; 4°C, 42 Hours)?
A: 9%

Q: What about the Unkno. % ([2]; 4°C, 42 Hours) of the same compound?
A: 12%

Q: What about the “2'-MPA %” value ([2]; 4°C, 66 Hours) of the same compound?
A: 73%

Q: And the Paclita. % ([2]; 4°C, 66 Hours)?
A: 11%

Q: What about the Unkno. % ([2]; 4°C, 66 Hours) of the same compound?
A: 16%

Q: What about the “2'-MPA %” value ([2]; Room Temperature, 1 Hour) of the same compound?
A: 78%

Q: And the Paclita. % ([2]; Room Temperature, 1 Hour)?
A: 14%

Q: And the Unkno. % ([2]; Room Temperature, 1 Hour)?
A: 8%

Q: What about the “2'-MPA %” value ([2]; Room Temperature, 6 Hours) of the same compound?
A: 78%

Q: What about the Paclita. % ([2]; Room Temperature, 6 Hours) of the same compound?
A: 14%

Q: And the Unkno. % ([2]; Room Temperature, 6 Hours)?
A: 8%

Q: What about the “2'-MPA %” value ([2]; Room Temperature, 18 Hours) of the same compound?
A: 69%

Q: What about the “2'-MPA %” value ([2]; Room Temperature, 42 Hours) of the same compound?
A: 73%

Q: And the Paclita. % ([2]; Room Temperature, 42 Hours)?
A: 17%

Q: And the Unkno. % ([2]; Room Temperature, 42 Hours)?
A: 10%

Q: What about the “2'-MPA %” value ([2]; Room Temperature, 66 Hours) of the same compound?
A: 79%

Q: And the Paclita. % ([2]; Room Temperature, 66 Hours)?
A: 13%

Q: And the Unkno. % ([2]; Room Temperature, 66 Hours)?
A: 8%

Q: What about the “2'-MPA %” value ([2]; Room Temperature, 90 Hours) of the same compound?
A: 73%

Q: And the Paclita. % ([2]; Room Temperature, 90 Hours)?
A: 15%

Q: What about the Unkno. % ([2]; Room Temperature, 90 Hours) of the same compound?
A: 12%

Q: What about the “2'-MPA peak” value [2, 6] of the same compound?
A: 75%

Q: And the Unknown peak [2, 6]?
A: 10%

Q: For `CC(=O)O[C@H]1C(=O)[C@@]2(C)[C@H]([C@H](OC(=O)c3ccccc3)[C@]3(O)C[C@H](OC(=O)[C@H](Oc4cccc[n+]4C)[C@@H](NC(=O)c4ccccc4)c4ccccc4)C(C)=C1C3(C)C)[C@]1(OC(C)=O)CO[C@@H]1C[C@@H]2O` [Paclitaxel 2'-MPM, Paclitaxel-2'-Methylpyridinium Mesylate], which Solubility [3] is on record?
A: Solution was attained

Q: What about the “Average return for this extraction” value [4] of the same compound?
A: about 44 % of theoretical

Q: And the product concentration ([5]; H2O, 4°C, 24 hours)?
A: unchanged

Q: What about the product concentration ([5]; H2O, 4°C, 48 hours) of the same compound?
A: unchanged

Q: What about the product concentration ([5]; H2O, 4°C, 72 hours) of the same compound?
A: 90%

Q: What about the product concentration ([5]; H2O, room temperature, 2 hours) of the same compound?
A: relatively unchanged

Q: What about the product concentration ([5]; H2O, room temperature, 24 hours) of the same compound?
A: 56%

Q: What about the “stability in aqueous solution” value ([5]; aqueous solution, 4°C, 24 hours (summary of Example 2)) of the same compound?
A: unchanged

Q: What about the “stability in aqueous solution, degraded to” value ([5]; aqueous solution, 4°C, 72 hours (summary of Example 2)) of the same compound?
A: 88-91%

Q: And the product concentration ([5]; saline solution (0.2M NaCl), 4°C, 24 hours)?
A: unchanged

Q: What about the product concentration ([5]; saline solution (0.2M NaCl), 4°C, 48 hours) of the same compound?
A: 91%

Q: What about the product concentration ([5]; saline solution (0.2M NaCl), 4°C, 72 hours) of the same compound?
A: 88%

Q: What about the “drop of product concentration” value ([5]; saline solution (0.2M NaCl), room temperature, 2 hours) of the same compound?
A: 1-2%

Q: And the product concentration ([5]; saline solution (0.2M NaCl), room temperature, 24 hours)?
A: 70%

Q: And the product concentration ([5]; saline solution (0.2M NaCl), room temperature, first ten minutes)?
A: no apparent change
